Measurements published in US8455475B2 (Gruenenthal GmbH, priority 2009, dated 2013).

The compounds below were run against T1, rat B1R (bradykinin receptor 1) (Rattus norvegicus, UniProt P97583) (assay: FLIPR Ca2+ assay (Fluo-4) on CHO K1 cells stably transfected with the B1R gene of the rat (rB1R cells): % inhibition at 10 μM / IC50, agonist Des-Arg9-bradykinin). Details: CHO-K1, rat B1R.
T1 construct: expressed in transfected cells; host or cells: CHO K1 cells
T1 sequence (P97583 1-337): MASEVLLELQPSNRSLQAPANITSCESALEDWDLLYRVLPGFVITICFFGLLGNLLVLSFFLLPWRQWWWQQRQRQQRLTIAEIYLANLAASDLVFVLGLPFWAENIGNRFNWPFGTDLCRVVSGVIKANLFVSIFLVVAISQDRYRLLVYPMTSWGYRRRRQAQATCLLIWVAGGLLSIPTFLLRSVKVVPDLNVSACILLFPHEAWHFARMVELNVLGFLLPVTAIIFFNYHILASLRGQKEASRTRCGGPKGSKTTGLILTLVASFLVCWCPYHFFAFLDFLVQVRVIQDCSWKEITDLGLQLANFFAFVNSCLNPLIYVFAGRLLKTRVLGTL
Format: cell-based
In short: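 Stably transfected CHO K1 cells loaded with Fluo-4 and read on FLIPR (λex 488, λem 540 nm; peak fluorescence). Test substance (10 μM) added first, then after 10–20 min the agonist at EC80; % inhibition versus maximum achievable inhibition. IC50 from several concentrations, n=2–3, N≥2.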

| inhibition at 10 µM | Compound |
| --- | --- |
| 70% | O=C(NC1CCc2ccc(C(=O)N3CCC4(CCN(CCCc5ccc(F)cc5)CC4)CC3)cc21)c1cc(C(F)(F)F)ccc1Cl (centres unmarked) [IND_CC-703, 2-Chloro-N-[6-[9-[3-(4-fluorophenyl)-propyl]-3,9-diazaspiro[5.5]undecane-3-carbonyl]-2,3-dihydro-1H-inden-1-yl]-5-(trifluoromethyl)-benzamide] |
| 71% | O=C(NC1CCc2ccc(C(=O)N3CCC4(CCN(Cc5ccc(F)cc5F)CC4)CC3)cc21)c1cc(Cl)ccc1F (centres unmarked) [IND_CC-629, 5-Chloro-N-[6-[9-[(2,4-difluoro-phenyl)-methyl]-3,9-diazaspiro[5.5]undecane-3-carbonyl]-2,3-dihydro-1H-inden-1-yl]-2-fluoro-benzamide] |
| 103% | CN(C(=O)c1ccccc1F)C1CCc2ccc(C(=O)N3CCC4(CC3)CCN(c3ccncc3)CC4)cc21 (centres unmarked) [IND_CC-400, 2-Fluoro-N-methyl-N-[6-(9-pyridin-4-yl-3,9-diazaspiro[5.5]undecane-3-carbonyl)-2,3-dihydro-1H-inden-1-yl]-benzamide] |
| 102% | O=C(NC1CCc2ccc(C(=O)N3CCC4(CC3)CCN(S(=O)(=O)c3ccc(Cl)s3)CC4)cc21)c1ccccc1Cl (centres unmarked) [IND_CC-608, 2-Chloro-N-[6-[9-[(5-chloro-thiophen-2-yl)sulfonyl]-3,9-diazaspiro[5.5]undecane-3-carbonyl]-2,3-dihydro-1H-inden-1-yl]-benzamide] |
| 61% | O=C(NC1CCc2ccc(CC(=O)N3CCC4(CCN(Cc5ccc6ncccc6c5)CC4)C3)cc21)c1ccccc1Cl (centres unmarked) [IND_CC-804, 2-Chloro-N-[6-[2-oxo-2-[8-(quinolin-6-yl-methyl)-3,8-diazaspiro[4.5]decan-3-yl]-ethyl]-2,3-dihydro-1H-inden-1-yl]-benzamide] |
| 54% | COc1cccc(F)c1CN1CCC2(CC1)CCN(C(=O)c1ccc3c(c1)C(N1Cc4c(c5c(Cl)cccc5n4C)C1=O)CC3)C2 (centres unmarked) [IND_CC-795, 8-Chloro-2-[6-[8-[(2-fluoro-6-methoxy-phenyl)-methyl]-2,8-diazaspiro[4.5]-decane-2-carbonyl]-2,3-dihydro-1H-inden-1-yl]-4-methyl-3,4-dihydro-2H-pyrrolo[3,4-b]indol-1-one] |
| 89% | O=C(NC1CCc2ccc(C(=O)N3CCC4(CCN(Cc5ccc(F)cc5Cl)CC4)CC3)cc21)c1c(F)cccc1Cl (centres unmarked) [IND_CC-802, 2-Chloro-N-[6-[9-[(2-chloro-4-fluoro-phenyl)-methyl]-3,9-diazaspiro-[5.5]undecane-3-carbonyl]-2,3-dihydro-1H-inden-1-yl]-6-fluoro-benzamide] |
| 76% | CCCNC(=O)N1CCC2(CC1)CCN(C(=O)c1ccc3c(c1)C(N(C(=O)c1ccccc1Cl)C1CC1)CC3)C2 (centres unmarked) [IND_CC-712, 2-[3-[(2-Chloro-benzoyl)-cyclopropyl-amino]-2,3-dihydro-1H-indene-5-carbonyl]-N-propyl-2,8-diazaspiro[4.5]decane-8-carboxylic acid amide] |
| 88% | O=C(NC1CCc2ccc(C(=O)N3CCC4(CCN(Cc5ccc6nccnc6c5)CC4)C3)cc21)c1cc(Cl)ccc1F (centres unmarked) [IND_CC-672, 5-Chloro-2-fluoro-N-[6-[8-(quinoxalin-6-yl-methyl)-2,8-diazaspiro[4.5]decane-2-carbonyl]-2,3-dihydro-1H-inden-1-yl]-benzamide] |
| 101% | CN(C1CCc2ccc(C(=O)N3CCC4(CC3)CCN(c3ccncc3)CC4)cc21)S(=O)(=O)c1cccc(C(F)(F)F)c1 (centres unmarked) [IND_CC-327, N-Methyl-N-[6-(9-pyridin-4-yl-3,9-diazaspiro[5.5]undecane-3-carbonyl)-2,3-dihydro-1H-inden-1-yl]-3-(trifluoromethyl)-benzenesulfonic acid amide] |
| 81% | O=C(c1ccc2c(c1)C(N(C(=O)c1ccccc1Cl)C1CC1)CC2)N1CCC2(CCN(S(=O)(=O)c3ccc(F)cc3F)CC2)C1 (centres unmarked) [IND_CC-616, 2-Chloro-N-cyclopropyl-N-[6-[8-[(2,4-difluoro-phenyl)sulfonyl]-2,8-diazaspiro[4.5]decane-2-carbonyl]-2,3-dihydro-1H-inden-1-yl]-benzamide] |
| 104% | CC1(C)CC(NS(=O)(=O)c2ccccc2Cl)c2cc(C(=O)N3CCC4(CC3)CCN(c3ccncc3)CC4)ccc21 (centres unmarked) [IND_CC-337, 2-Chloro-N-[3,3-dimethyl-6-(3-pyridin-4-yl-3,9-diazaspiro[5.5]undecane-9-carbonyl)-1,2-dihydro-inden-1-yl]-benzenesulfonic acid amide] |
| 60% | O=C(NC1CCc2ccc(C(=O)N3CCC4(CCN(Cc5ccc(F)cc5Cl)CC4)CC3)cc21)c1cc(C(F)(F)F)ccc1Cl (centres unmarked) [IND_CC-669, 2-Chloro-N-[6-[9-[(2-chloro-4-fluoro-phenyl)-methyl]-3,9-diazaspiro[5.5]-undecane-3-carbonyl]-2,3-dihydro-1H-inden-1-yl]-5-(trifluoromethyl)benzamide] |
| 59% | O=C(Nc1ccc(F)cc1F)N1CCC2(CC1)CCN(C(=O)c1ccc3c(c1)C(N(C(=O)c1ccccc1Cl)C1CC1)CC3)C2 (centres unmarked) [IND_CC-719, 2-[3-[(2-Chloro-benzoyl)-cyclopropyl-amino]-2,3-dihydro-1H-indene-5-carbonyl]-N-(2,4-difluoro-phenyl)-2,8-diazaspiro[4.5]decane-8-carboxylic acid amide] |
| 73% | O=C(NC1CCc2ccc(C(=O)N3CCC4(CCN(Cc5ccc(F)cc5F)CC4)CC3)cc21)c1cc(C(F)(F)F)ccc1Cl (centres unmarked) [IND_CC-647, 2-Chloro-N-[6-[9-[(2,4-difluoro-phenyl)-methyl]-3,9-diazaspiro[5.5]undecane-3-carbonyl]-2,3-dihydro-1H-inden-1-yl]-5-(trifluoromethyl)-benzamide] |
| 97% | O=C(c1ccc2c(c1)C(NS(=O)(=O)c1cccc(C(F)(F)F)c1)CC2)N1CCC2(CC1)CCN(c1ccncc1)C2 (centres unmarked) [IND_CC-329, N-[6-(2-Pyridin-4-yl-2,8-diazaspiro[4.5]decane-8-carbonyl)-2,3-dihydro-1H-inden-1-yl]-3-(trifluoromethyl)-benzenesulfonic acid amide] |
| 90% | CN(C)c1ncc(CN2CCC3(CC2)CCN(C(=O)c2ccc4c(c2)C(NC(=O)c2ccccc2Cl)CC4)C3)cn1 (centres unmarked) [IND_CC-566, 2-Chloro-N-[6-[8-[(2-dimethylamino-pyrimidin-5-yl)-methyl]-2,8-diazaspiro[4.5]decane-2-carbonyl]-2,3-dihydro-1H-inden-1-yl]-benzamide] |
| 100% | O=C(NC1CCc2ccc(C(=O)N3CCC4(CC3)CCN(C(=O)c3ccc(F)cc3F)CC4)cc21)c1ccccc1Cl (centres unmarked) [IND_CC-600, 2-Chloro-N-[6-[9-(2,4-difluoro-benzoyl)-3,9-diazaspiro[5.5]undecane-3-carbonyl]-2,3-dihydro-1H-inden-1-yl]-benzamide] |
| 101% | O=C(NC1CCc2ccc(C(=O)N3CCC4(CCN(Cc5ccccn5)CC4)CC3)cc21)c1ccccc1Cl (centres unmarked) [IND_CC-509, 2-Chloro-N-[6-[9-(pyridin-2-yl-methyl)-3,9-diazaspiro[5.5]undecane-3-carbonyl]-2,3-dihydro-1H-inden-1-yl]-benzamide] |
| 104% | O=C(NC1CCc2ccc(C(=O)N3CCC4(CCN(Cc5cc(F)ccc5F)CC4)CC3)cc21)c1ccccc1Cl (centres unmarked) [IND_CC-515, 2-Chloro-N-[6-[9-[(2,5-difluoro-phenyl)-methyl]-3,9-diazaspiro[5.5]undecane-3-carbonyl]-2,3-dihydro-1H-inden-1-yl]-benzamide] |
| 98% | N#Cc1ccccc1S(=O)(=O)N1CCC2(CCN(C(=O)c3ccc4c(c3)C(NC(=O)c3ccccc3Cl)CC4)CC2)CC1 (centres unmarked) [IND_CC-611, 2-Chloro-N-[6-[9-[(2-cyano-phenyl)sulfonyl]-3,9-diazaspiro[5.5]undecane-3-carbonyl]-2,3-dihydro-1H-inden-1-yl]-benzamide] |
| 101% | N#Cc1cccc(NC(=O)N2CCC3(CC2)CCN(C(=O)c2ccc4c(c2)C(NC(=O)c2ccccc2Cl)CC4)CC3)c1 (centres unmarked) [IND_CC-705, 3-[3-[(2-Chloro-benzoyl)amino]-2,3-dihydro-1H-indene-5-carbonyl]-N-(3-cyano-phenyl)-3,9-diazaspiro[5.5]undecane-9-carboxylic acid amide] |
| 99% | O=C(NC1CCc2ccc(C(=O)N3CCC4(CCN(C(=O)NC5CCCCC5)CC4)CC3)cc21)c1ccccc1Cl (centres unmarked) [IND_CC-708, 3-[3-[(2-Chloro-benzoyl)amino]-2,3-dihydro-1H-indene-5-carbonyl]-N-cyclohexyl-3,9-diazaspiro[5.5]undecane-9-carboxylic acid amide] |
| 92% | O=C(c1ccc2c(c1)C(NS(=O)(=O)c1c(Cl)cc(C(F)(F)F)cc1Cl)CC2)N1CCC2(CCN(c3ccncc3)CC2)C1 (centres unmarked) [IND_CC-404, 2,6-Dichloro-N-[6-(8-pyridin-4-yl-2,8-diazaspiro[4.5]decane-2-carbonyl)-2,3-dihydro-1H-inden-1-yl]-4-(trifluoromethyl)-benzenesulfonic acid amide] |
| 102% | CN(C(=O)C1CCC1)C1CCc2ccc(C(=O)N3CCC4(CC3)CCN(c3ccncc3)CC4)cc21 (centres unmarked) [IND_CC-414, N-Methyl-N-[6-(9-pyridin-4-yl-3,9-diazaspiro[5.5]undecane-3-carbonyl)-2,3-dihydro-1H-inden-1-yl]-cyclobutanecarboxylic acid amide] |
| 54% | N#Cc1ccc(CN2CCC3(CC2)CCN(C(=O)c2ccc4c(c2)C(NC(=O)c2cc(Cl)ccc2F)CC4)C3)cc1 (centres unmarked) [IND_CC-650, 5-Chloro-N-[6-[8-[(4-cyano-phenyl)-methyl]-2,8-diazaspiro[4.5]decane-2-carbonyl]-2,3-dihydro-1H-inden-1-yl]-2-fluoro-benzamide] |
